Test results from patent publication US9850283B2, “Macrocyclic inhibitors of the PD-1/PD-L1 and CD80(B7-1)/PD-L1 protein/protein interactions” (BRISTOL-MYERS SQUIBB COMPANY, priority 2013, dated 2017).
Where two headings read alike, the source gives them in different places. Positions of bridges follow the written chain, without caps; N, C: chain ends. Non-standard residues stand in square brackets, D forms with d. Residues, ends and D or L forms follow the SMILES beside them. Phe(3,4,5-F3) = N[C@@H](Cc1cc(F)c(F)c(F)c1)C(=O)O; Phe(4-CF3) = N[C@@H](Cc1ccc(C(F)(F)F)cc1)C(=O)O; Trp(5-OH) = N[C@@H](Cc1c[nH]c2ccc(O)cc12)C(=O)O; Phe(3,5-F2) = N[C@@H](Cc1cc(F)cc(F)c1)C(=O)O; Phe(4-CH2NH2) = NCc1ccc(C[C@H](N)C(=O)O)cc1; Phe(4-Cl) = N[C@@H](Cc1ccc(Cl)cc1)C(=O)O; Phe(4-NH2) = Nc1ccc(C[C@H](N)C(=O)O)cc1; Bta = N[C@@H](Cc1csc2ccccc12)C(=O)O; NMeF = CN[C@@H](Cc1ccccc1)C(=O)O; NMeNle = CCCC[C@H](NC)C(=O)O; Sar = CNCC(=O)O

Legend:
Human PD-L1/PD-1 = target: T1, Human PD-L1/PD-1 (Homo sapiens, UniProt Q9NZQ7); test: HTRF PD-1-Ig/PD-L1-His binding assay (human PD-L1)
T1 construct: made in house; host or cells: HEK293T
T1 sequence (Q9NZQ7 with tags, fused parts or gaps): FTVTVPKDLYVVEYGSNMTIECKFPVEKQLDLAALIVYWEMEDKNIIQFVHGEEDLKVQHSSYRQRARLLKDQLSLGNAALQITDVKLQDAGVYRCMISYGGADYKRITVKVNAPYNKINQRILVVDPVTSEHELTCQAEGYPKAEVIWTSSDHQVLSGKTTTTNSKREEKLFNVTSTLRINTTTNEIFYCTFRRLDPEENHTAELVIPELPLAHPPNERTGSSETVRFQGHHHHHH
How it was run: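 Soluble Fc-fused PD-1 and His-tagged PD-L1 (truncated before the transmembrane region) were combined in dPBS with 0.1% (w/v) BSA and 0.05% (v/v) Tween-20. Binding was read by HTRF using europium cryptate anti-Ig antibody (1 nM final) and APC anti-His antibody (20 nM final).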

[1] = target: T2, LK35.2-hPD-L1 cells / PE-labeled PD-1-Ig (Homo sapiens, UniProt Q9NZQ7); test: LK35.2-hPD-L1 cell binding high-content screening assay; type: cell-based; conditions: cell line of CBA not given (LK35.2-hPD-L1 or 293T-hPD-L1)
T2 construct: expressed in transfected cells; host or cells: LK35.2 mouse B cell line
T2 sequence (Q9NZQ7 19-290): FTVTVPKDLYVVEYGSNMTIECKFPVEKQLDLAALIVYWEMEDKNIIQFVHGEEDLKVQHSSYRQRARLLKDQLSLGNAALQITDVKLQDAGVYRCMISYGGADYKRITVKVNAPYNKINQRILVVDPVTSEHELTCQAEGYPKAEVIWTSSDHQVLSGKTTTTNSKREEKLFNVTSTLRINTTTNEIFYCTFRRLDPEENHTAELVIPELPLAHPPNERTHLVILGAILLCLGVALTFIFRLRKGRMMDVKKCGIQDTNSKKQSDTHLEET
How it was run: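 Mouse LK35.2 B cells stably over-expressing human PD-L1, cultured overnight, treated with compound plus PE-labeled human PD-1-Ig (1 nM final) in RPMI/10% FCS for 1 h at 37 °C. After washing, bound fluorescence quantified by high-content imaging.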

[2] = cluster symbol, read-out: HTRF IC50 cluster
[3] = cluster symbol, read-out: CBA IC50 cluster

Compound | IC50 (Human PD-L1/PD-1; [2]) [nM] | IC50 [1, 3] [nM] | IC50 (Human PD-L1/PD-1; read-out: HTRF IC50 value) [nM] | IC50 ([1]; read-out: CBA IC50 value) [nM]
CC(C)C[C@@H]1NC(=O)[C@H](Cc2ccc(O)cc2)NC(=O)[C@H](Cc2c[nH]c3ccccc23)NC(=O)CN(C)C(=O)[C@H](Cc2ccc(O)cc2)NC(=O)[C@H](Cc2ccccc2)N(C)C(=O)[C@H](C(C)C)NC(=O)[C@H](CC(=O)O)NC(=O)CN(C)C(=O)[C@H](CC(C)C)N(C)C(=O)[C@H](Cc2ccccc2)N(C)C(=O)[C@H](Cc2ccccc2)NC(=O)CSC[C@@H](C(=O)NCC(N)=O)NC1=O [Example 3136] (HELM PEPTIDE1{[O=C(C[*:3])[*:2]].F.[meF].[meL].[Sar].D.V.[meF].Y.[Sar].W.Y.L.C.G.[am]}$PEPTIDE1,PEPTIDE1,1:R3-14:R3$$$V2.0) | 6.76 to 30.3 | 4.78 to 72.9 | – | –
CCCC[C@H]1C(=O)N(C)CC(=O)N[C@@H](CC(=O)O)C(=O)N[C@@H](C(C)C)C(=O)N(C)[C@@H](Cc2ccccc2)C(=O)N[C@@H](Cc2ccc(O)cc2)C(=O)N(C)CC(=O)N[C@@H](Cc2c[nH]c3ccccc23)C(=O)N[C@@H](Cc2ccc(C(F)(F)F)cc2)C(=O)N[C@@H](CC(C)C)C(=O)N[C@H](C(=O)NCC(N)=O)CSCC(=O)N[C@@H](Cc2ccccc2)C(=O)N(C)[C@@H](Cc2ccccc2)C(=O)N1C [Example 3138] ({CH2CO}-F[NMeF][NMeNle][Sar]DV[NMeF]Y[Sar]W[Phe(4-CF3)]LCG-NH2; thioether N-13) | > 30.5 | > 74.3 | – | –
CCCC[C@H]1C(=O)N(C)CC(=O)N[C@@H](CC(=O)O)C(=O)N[C@@H](C(C)C)C(=O)N(C)[C@@H](Cc2ccccc2)C(=O)N[C@@H](Cc2ccc(O)cc2)C(=O)N(C)CC(=O)N[C@@H](Cc2c[nH]c3ccccc23)C(=O)N[C@@H](Cc2ccc(O)cc2)C(=O)N[C@@H](CC(C)C)C(=O)N[C@H](C(=O)NCC(N)=O)CSCC(=O)N[C@@H](Cc2cc(F)cc(F)c2)C(=O)N(C)[C@@H](Cc2ccccc2)C(=O)N1C [Example 3143] ({CH2CO}-[Phe(3,5-F2)][NMeF][NMeNle][Sar]DV[NMeF]Y[Sar]WYLCG-NH2; thioether N-13) | 6.76 to 30.3 | 0.158 to 4.71 | – | –
CCCC[C@H]1C(=O)N(C)CC(=O)N[C@@H](CC)C(=O)N[C@@H](C(C)C)C(=O)N(C)[C@@H](Cc2ccccc2)C(=O)N[C@@H](Cc2ccc(O)cc2)C(=O)N(C)CC(=O)N[C@@H](Cc2c[nH]c3ccccc23)C(=O)N[C@@H](Cc2ccc(O)cc2)C(=O)N[C@@H](CC(C)C)C(=O)N[C@H](C(=O)NCC(N)=O)CSCC(=O)N[C@@H](Cc2ccccc2)C(=O)N(C)[C@@H](Cc2ccccc2)C(=O)N1C [Example 3146] (HELM PEPTIDE1{[O=C(C[*:3])[*:2]].F.[meF].[CCCC[C@@H](C(=O)[*:2])N(C)[*:1]].[Sar].[Abu].V.[meF].Y.[Sar].W.Y.L.C.G.[am]}$PEPTIDE1,PEPTIDE1,1:R3-14:R3$$$V2.0) | > 30.5 | 4.78 to 72.9 | – | –
CCCC[C@H]1C(=O)N(C)CC(=O)N[C@@H](CC(=O)O)C(=O)N[C@@H](C(C)C)C(=O)N(C)[C@@H](Cc2ccccc2)C(=O)N[C@@H](Cc2ccc(O)cc2)C(=O)N(C)CC(=O)N[C@@H](Cc2c[nH]c3ccc(O)cc23)C(=O)N[C@@H](Cc2ccc(O)cc2)C(=O)N[C@@H](CC(C)C)C(=O)N[C@H](C(=O)NCC(N)=O)CSCC(=O)N[C@@H](Cc2ccccc2)C(=O)N(C)[C@@H](Cc2ccccc2)C(=O)N1C [Example 3147] ({CH2CO}-F[NMeF][NMeNle][Sar]DV[NMeF]Y[Sar][Trp(5-OH)]YLCG-NH2; thioether N-13) | – | – | 750 | 1730

Next, values leading:

IC50 (Human PD-L1/PD-1; [2]) [nM] | IC50 [1, 3] [nM] | IC50 (Human PD-L1/PD-1; read-out: HTRF IC50 value) [nM] | IC50 ([1]; read-out: CBA IC50 value) [nM] | Compound
6.76 to 30.3 | 4.78 to 72.9 | – | – | CCCC[C@H]1C(=O)N(C)CC(=O)N[C@@H](CC(=O)O)C(=O)N[C@@H](C(C)C)C(=O)N(C)[C@@H](Cc2ccccc2)C(=O)N[C@@H](Cc2ccc(N)cc2)C(=O)N(C)CC(=O)N[C@@H](Cc2c[nH]c3ccccc23)C(=O)N[C@@H](Cc2ccc(O)cc2)C(=O)N[C@@H](CC(C)C)C(=O)N[C@H](C(=O)NCC(N)=O)CSCC(=O)N[C@@H](Cc2ccccc2)C(=O)N(C)[C@@H](Cc2ccccc2)C(=O)N1C [Example 3139] ({CH2CO}-F[NMeF][NMeNle][Sar]DV[NMeF][Phe(4-NH2)][Sar]WYLCG-NH2; thioether N-13)
6.76 to 30.3 | 4.78 to 72.9 | – | – | CCCC[C@H]1C(=O)N(C)CC(=O)N[C@@H](CC(=O)O)C(=O)N[C@@H](C(C)C)C(=O)N(C)[C@@H](Cc2ccccc2)C(=O)N[C@@H](Cc2ccc(O)cc2)C(=O)N(C)CC(=O)N[C@@H](Cc2c[nH]c3ccccc23)C(=O)N[C@@H](Cc2ccc(N)cc2)C(=O)N[C@@H](CC(C)C)C(=O)N[C@H](C(=O)NCC(N)=O)CSCC(=O)N[C@@H](Cc2ccccc2)C(=O)N(C)[C@@H](Cc2ccccc2)C(=O)N1C [Example 3140] ({CH2CO}-F[NMeF][NMeNle][Sar]DV[NMeF]Y[Sar]W[Phe(4-NH2)]LCG-NH2; thioether N-13)
6.76 to 30.3 | 4.78 to 72.9 | – | – | CCCC[C@H]1C(=O)N(C)CC(=O)N[C@@H](CC(=O)O)C(=O)N[C@@H](C(C)C)C(=O)N(C)[C@@H](Cc2ccccc2)C(=O)N[C@@H](Cc2ccc(CN)cc2)C(=O)N(C)CC(=O)N[C@@H](Cc2csc3ccccc23)C(=O)N[C@@H](Cc2ccc(O)cc2)C(=O)N[C@@H](CC(C)C)C(=O)N[C@H](C(=O)NCC(N)=O)CSCC(=O)N[C@@H](Cc2ccccc2)C(=O)N(C)[C@@H](Cc2ccccc2)C(=O)N1C [Example 3141] ({CH2CO}-F[NMeF][NMeNle][Sar]DV[NMeF][Phe(4-CH2NH2)][Sar][Bta]YLCG-NH2; thioether N-13)
6.76 to 30.3 | 4.78 to 72.9 | – | – | CC[C@H](C)[C@H]1C(=O)N(C)CC(=O)N[C@@H](CC(=O)O)C(=O)N[C@@H](C(C)C)C(=O)N(C)[C@@H](Cc2ccccc2)C(=O)N[C@@H](Cc2ccc(O)cc2)C(=O)N(C)CC(=O)N[C@@H](Cc2c[nH]c3ccccc23)C(=O)N[C@@H](Cc2ccc(O)cc2)C(=O)N[C@@H](CC(C)C)C(=O)N[C@H](C(=O)NCC(N)=O)CSCC(=O)N[C@@H](Cc2ccccc2)C(=O)N(C)[C@@H](Cc2ccccc2)C(=O)N1C [Example 3142] (HELM PEPTIDE1{[O=C(C[*:3])[*:2]].F.[meF].[meI].[Sar].D.V.[meF].Y.[Sar].W.Y.L.C.G.[am]}$PEPTIDE1,PEPTIDE1,1:R3-14:R3$$$V2.0)
6.76 to 30.3 | 0.158 to 4.71 | – | – | CCCC[C@H]1C(=O)N(C)CC(=O)N[C@@H](CC(=O)O)C(=O)N[C@@H](C(C)C)C(=O)N(C)[C@@H](Cc2ccccc2)C(=O)N[C@@H](Cc2ccc(O)cc2)C(=O)N(C)CC(=O)N[C@@H](Cc2c[nH]c3ccccc23)C(=O)N[C@@H](Cc2ccc(O)cc2)C(=O)N[C@@H](CC(C)C)C(=O)N[C@H](C(=O)NCC(N)=O)CSCC(=O)N[C@@H](Cc2cc(F)c(F)c(F)c2)C(=O)N(C)[C@@H](Cc2ccccc2)C(=O)N1C [Example 3144] ({CH2CO}-[Phe(3,4,5-F3)][NMeF][NMeNle][Sar]DV[NMeF]Y[Sar]WYLCG-NH2; thioether N-13)
> 30.5 | > 74.3 | – | – | CCCC[C@H]1C(=O)N(C)CC(=O)N[C@@H](CC(=O)O)C(=O)N[C@@H](C(C)C)C(=O)N[C@@H](Cc2ccc(Cl)cc2)C(=O)N[C@@H](Cc2ccc(O)cc2)C(=O)N(C)CC(=O)N[C@@H](Cc2c[nH]c3ccccc23)C(=O)N[C@@H](Cc2ccc(O)cc2)C(=O)N[C@@H](CC(C)C)C(=O)N[C@H](C(=O)NCC(N)=O)CSCC(=O)N[C@@H](Cc2ccccc2)C(=O)N(C)[C@@H](Cc2ccccc2)C(=O)N1C [Example 3145] ({CH2CO}-F[NMeF][NMeNle][Sar]DV[Phe(4-Cl)]Y[Sar]WYLCG-NH2; thioether N-13)
